Measured values reported in patent publication US20150148311A1, “NON-SYSTEMIC TGR5 AGONISTS” (Ardelyx, Inc., priority 2011, published 2015).
Read-outs that look alike come from different tables or passages of the source.

Target: T1, human TGR5 (Homo sapiens, UniProt Q8TDU6)
T1 construct: expressed in transfected cells
T1 sequence (Q8TDU6 1-330): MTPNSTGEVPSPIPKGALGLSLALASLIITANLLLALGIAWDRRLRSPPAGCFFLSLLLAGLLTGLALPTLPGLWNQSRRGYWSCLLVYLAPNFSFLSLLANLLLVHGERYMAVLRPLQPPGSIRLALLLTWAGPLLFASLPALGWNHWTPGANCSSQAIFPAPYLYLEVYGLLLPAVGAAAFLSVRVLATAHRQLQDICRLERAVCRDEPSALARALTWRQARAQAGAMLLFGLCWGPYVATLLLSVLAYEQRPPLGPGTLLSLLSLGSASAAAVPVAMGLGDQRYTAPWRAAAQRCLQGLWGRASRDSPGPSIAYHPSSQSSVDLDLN
Test: Cell-based TGR5 assay, HEK293 cells stably expressing human TGR5, cAMP by HTRF
Settings: 0.05 nM to 10 μM
Description: Two primary cell based screens were performed. The first utilized HEK293 cells stably transfected to heterologously express human TGR5. The second screen used the human caecum carcinoma cell line NCI-H716 which endogenously expresses human TGR5. In both assays, cells are treated with candidate TGR5 activators and assessed for the increased intercellular levels of cAMP.
HEK293 cells were transfected with a vector that expresses a gene encoding human TGR5, and a stable cell line was isolated using drug selection following standard techniques. Cells were grown overnight at 37° C./5% CO2 prior to assay.
TGR5-mediated cAMP generation was measured using a homogeneous time resolved fluorescence (HTRF) detection method (Cisbio). Test compounds were dissolved in DMSO to a final concentration of 10 mM. Serial 3-fold dilutions of the stock solution were made in DMSO, and these solutions were diluted 100-fold into Hanks Balanced Salt Solution supplemented with 10 mM HEPES pH 7.4 and 0.5 mM isobutyl methylxanthine (IBMX). Prior to assay, culture medium was replaced with fresh medium, and test compounds diluted in HBSS/HEPES/IBMX were added to the cells and incubated at 37° C. for 30 minutes.
Following incubation with test compounds, cAMP was detected through the successive addition of cAMP labeled with the modified allophyocyanin dye d2 (cAMP-d2) and cryptate-labeled anti-cAMP in lysis buffer, and reading HTRF per the manufacturer's instructions. A standard curve was used to convert the raw HTRF data into [cAMP].

[1] = HEK293 cells stably expressing human TGR5, 30 min at 37 C, read-out: pEC50 Human TGR5 (converted)

SMILES | EC50 [1] [µM] | EC50 (pEC50 Human TGR5, HEK293 cells stably expressing human TGR5, 30 min at 37 C) [µM]
O=C(CCCCc1cc(Cl)c(CN2C[S+]([O-])C[C@H]2C(=O)N2CCN(C3CC3)c3ccccc32)cc1Cl)NC[C@H](O)[C@@H](O)[C@H](O)[C@H](O)CO (some centres unmarked) [Example 221] | 0.126 to 1 | 
CN(C[C@H](O)[C@@H](O)[C@H](O)[C@H](O)CO)C(=O)c1ccc(COc2cc(Cl)c(CN3CSC[C@H]3C(=O)N3CCN(C4CC4)c4ccccc43)cc2Cl)nc1 [Example 205] | 0.126 to 1 | 
CN(C[C@H](O)[C@@H](O)[C@H](O)[C@H](O)CO)C(=O)c1cc(NCCCCCc2cc(Cl)c(CN3CSC[C@H]3C(=O)N3CCN(C4CC4)c4ccccc43)cc2Cl)nc(N(C)CCO)n1 [Example 224] | 0.126 to 1 | 
O=C(NCCCc1cc(Cl)c(OCC2(C(=O)N3CCN(C4CC4)c4ccccc43)CC2)cc1Cl)NC[C@H](O)[C@@H](O)[C@H](O)[C@H](O)CO [Example 250] | 0.126 to 1 | 
O=C([C@@H]1CSCN1Cc1c(Cl)ccc(Cl)c1O)N1CCN(C2CC2)c2ccccc21 [Example 170, (R)-(4-cyclopropyl-3,4-dihydroquinoxalin-1(2H)-yl)(3-(3,6-dichloro-2-hydroxybenzyl)thiazolidin-4-yl)methanone] | 0.126 to 1 | 
O=C(N1CCN(C2CC2)c2ccccc21)C1(NCc2cc(C3CC3)ccc2Cl)CC1 [Example 183, (1-(2-chloro-5-cyclopropylbenzylamino)cyclopropyl)(4-cyclopropyl-3,4-dihydroquinoxalin-1(2H)-yl)methanone] | < 0.1 | 
O=C(CCCCc1ccc(Cl)c(CNC2(C(=O)N3CCN(C4CC4)c4ccccc43)CC2)c1)NC[C@H](O)[C@@H](O)[C@H](O)[C@H](O)CO [Example 263] | 1.26 to 50.1 | 
CN(C(=O)[C@@H]1CSCN1Cc1cc(Cl)ccc1Cl)c1ccccc1OC1CCC1 [Example 290] | 0.126 to 1 | 
O=C(NCCCCc1cc(Cl)c(OCC2(C(=O)N3CCN(C4CC4)c4ccccc43)CC2)cc1Cl)NC[C@H](O)[C@@H](O)[C@H](O)[C@H](O)CO [Example 251] | 0.126 to 1 | 
O=C(NCCCN(CCCNC(=O)[C@H](O)[C@@H](O)[C@H](O)[C@H](O)CO)C(=O)CCc1cc(Cl)c(CN2CSC[C@H]2C(=O)N2CCN(C3CC3)c3ccccc32)cc1Cl)[C@H](O)[C@@H](O)[C@H](O)[C@H](O)CO [Example 209] | 1.26 to 50.1 | 
CN(C(=O)[C@@H]1CSCN1Cc1cc(Cl)ccc1Cl)c1ccccc1OC1CC1 [Example 289] | 0.126 to 1 | 
CN(C[C@H](O)[C@@H](O)[C@H](O)[C@H](O)CO)C(=O)CCc1cc(Cl)c(CN2C[C@@H](F)C[C@H]2C(=O)N2CCN(C3CC3)c3ccccc32)cc1Cl [Example 266] | 1.26 to 50.1 | 
CN(C[C@H](O)[C@@H](O)[C@H](O)[C@H](O)CO)C(=O)c1ccc(COc2cc(Cl)c(CN3CSC[C@H]3C(=O)N3CCN(C4CC4)c4ccccc43)cc2Cl)o1 [Example 203] | 0.126 to 1 | 
CN(C[C@H](O)[C@@H](O)[C@H](O)[C@H](O)CO)C(=O)NCCCc1cc(Cl)c(OCC2(C(=O)N3CCN(C4CC4)c4ccccc43)CC2)cc1Cl [Example 253] | 0.126 to 1 | 
CN(C[C@H](O)[C@@H](O)[C@H](O)[C@H](O)CO)C(=O)CCCCc1ccc(Cl)c(CNC2(C(=O)N3CCN(C4CC4)c4ccccc43)CC2)c1 [Example 260] | 0.126 to 1 | 
CN(C[C@H](O)[C@@H](O)[C@@H](O)[C@H](O)CO)C(=O)CCc1cc(Cl)c(CN2C[C@@H](F)C[C@H]2C(=O)N2CCN(C3CC3)c3ccccc32)cc1Cl [Example 267] | 1.26 to 50.1 | 
C[C@@H](NC(=O)[C@@H](C)NC(=O)[C@@H](C)NC(=O)c1ccc(COc2cc(Cl)c(CN3CSC[C@H]3C(=O)N3CCN(C4CC4)c4ccccc43)cc2Cl)cc1)C(=O)O [Example 207] | 0.126 to 1 | 
CN(C[C@H](O)[C@@H](O)[C@H](O)[C@H](O)CO)C(=O)CCCCc1ccc(Cl)c(CNC2(C(=O)N3CCN(C4CC4)c4ccccc43)CC2)c1 [Example 262] | 1.26 to 50.1 | 

SMILES | EC50 [1] [µM] | EC50 (pEC50 Human TGR5, HEK293 cells stably expressing human TGR5, 30 min at 37 C) [µM]
O=C([C@@H]1CSCN1Cc1cc(Cl)c(CCCCCNc2nc(N(CCO)CCO)nc(N(CCO)CCO)n2)cc1Cl)N1CCN(C2CC2)c2ccccc21 [Example 173, 2-({4-[bis(2-hydroxyethyl)amino]-6-{[5-(2,5-dichloro-4-{[(4R)-4-[(4-cyclopropyl-1,2,3,4-tetrahydroquinoxalin-1-yl)carbonyl]-1,3-thiazolidin-3-yl]methyl}phenyl)pentyl]amino}-1,3,5-triazin-2-yl}(2-hydroxyethyl)amino)ethan-1-ol] | 0.126 to 1 | 
CN(C[C@H](O)[C@@H](O)[C@H](O)[C@H](O)CO)C(=O)c1cnn(Cc2cc(Cl)c(CN3CSC[C@H]3C(=O)N3CCN(C4CC4)c4ccccc43)cc2Cl)c1 [Example 235] | 0.126 to 1 | 
O=C(O)CN(C[C@H](O)[C@@H](O)[C@H](O)[C@H](O)CO)C(=O)CCCCc1cc(Cl)c(CN2CSC[C@H]2C(=O)N2CCN(C3CC3)c3ccccc32)cc1Cl [Example 226] |  | 0.126 to 1
O=C(NC[C@H](O)[C@@H](O)[C@H](O)[C@H](O)CO)c1ccc(OCCCc2cc(Cl)c(CN3CSC[C@H]3C(=O)N3CCN(C4CC4)c4ccccc43)cc2Cl)cc1 [Example 286] | 0.126 to 1 | 
CN(CCCCc1cc(Cl)c(OCC2(C(=O)N3CCN(C4CC4)c4ccccc43)CC2)cc1Cl)C[C@H](O)[C@@H](O)[C@H](O)[C@H](O)CO [Example 171, (4-cyclopropyl-3,4-dihydroquinoxalin-1(2H)-yl)(1-((2,5-dichloro-4-(4-(methyl((2S,3R,4R,5R)-2,3,4,5,6-pentahydroxyhexyl)amino)butyl)phenoxy)methyl)-cyclopropyl)methanone] | 0.126 to 1 | 
N=C(N)NCCCCCc1cc(Cl)c(CN2CSC[C@H]2C(=O)N2CCN(C3CC3)c3ccccc32)cc1Cl [Example 181, (R)-(3-(4-(5-guanidinylpentyl)-2,5-dichlorobenzyl)thiazolidin-4-yl)(4-cyclopropyl-3,4-dihydroquinoxalin-1(2H)-yl)methanone] | < 0.1 | 
O=C(O)CNC(=O)[C@H](CS)NC(=O)CC[C@H](NC(=O)CCCCc1cc(Cl)c(CN2CSC[C@H]2C(=O)N2CCN(C3CC3)c3ccccc32)cc1Cl)C(=O)O [Example 222] | < 0.1 | 
O=C(O)CN1CCN(C(=O)NCCCCCc2cc(Cl)c(CN3CSC[C@H]3C(=O)N3CCN(C4CC4)c4ccccc43)cc2Cl)CC1 [Example 281] | < 0.1 | 
O=C(NC[C@@H](O)[C@H](O)[C@@H](O)[C@@H](O)CO)C(CCCc1cc(Cl)c(CN2CSC[C@H]2C(=O)N2CCN(C3CC3)c3ccccc32)cc1Cl)C(=O)NC[C@@H](O)[C@H](O)[C@@H](O)[C@@H](O)CO [Example 174, 2-(3-(2,5-dichloro-4-(((R)-4-(4-cyclopropyl-1,2,3,4-tetrahydroquinoxaline-1-carbonyl)thiazolidin-3-yl)methyl)phenyl)propyl)-N1,N3-bis((2R,3S,4S,5S)-2,3,4,5,6-pentahydroxyhexyl)malonamide] | 1.26 to 50.1 | 
CN(C[C@H](O)[C@@H](O)[C@H](O)[C@H](O)CO)C(=O)c1ccc(COc2cc(Cl)c(CN3CSC[C@H]3C(=O)N3CCN(C4CC4)c4ccccc43)cc2Cl)cc1 [Example 196] | 0.126 to 1 | 
CN(C[C@H](O)[C@@H](O)[C@H](O)[C@H](O)CO)C(=O)CCCCc1ccc(C(F)(F)F)c(CNC2(C(=O)N3CCN(C4CC4)c4ccccc43)CC2)c1 [Example 172, 5-(3-((1-(4-cyclopropyl-1,2,3,4-tetrahydroquinoxaline-1-carbonyl)cyclopropylamino)methyl)-4-(trifluoromethyl)phenyl)-N-methyl-N-((2S,3R,4R,5R)-2,3,4,5,6-pentahydroxyhexyl)pentanamide] | 1.26 to 50.1 | 
O=C(N1CCN(C2CC2)c2ccccc21)C1(NCc2cc(I)ccc2C(F)(F)F)CC1 [Example 164, (4-cyclopropyl-3,4-dihydroquinoxalin-1(2H)-yl)(1-(5-iodo-2-(trifluoromethyl)benzylamino)cyclopropyl)methanone] | 0.126 to 1 | 
COC(=O)[C@H](CCCCN)NC(=O)NCCCCCc1cc(Cl)c(CN2CSC[C@H]2C(=O)N2CCN(C3CC3)c3ccccc32)cc1Cl [Example 274] | 0.126 to 1 | 
O=C(NC[C@H](O)[C@@H](O)[C@H](O)[C@H](O)CO)c1ccc(CCc2cc(Cl)c(CN3CSC[C@H]3C(=O)N3CCN(C4CC4)c4ccccc43)cc2Cl)cn1 [Example 202] | 0.126 to 1 | 
O=C(CCCCc1ccc(Cl)c(CNC2(C(=O)N3CCN(C4CC4)c4ccccc43)CC2)c1)NC[C@H](O)[C@@H](O)[C@H](O)[C@H](O)CO [Example 261] | 0.126 to 1 | 
O=C(NCCOCCOCCOCCNC(=O)c1ccc(COc2cc(Cl)c(CN3CSC[C@H]3C(=O)N3CCN(C4CC4)c4ccccc43)cc2Cl)cc1)c1ccc(COc2cc(Cl)c(CN3CSC[C@@H]3C(=O)N3CCN(C4CC4)c4ccccc43)cc2Cl)cc1 [Example 190] | 1.26 to 50.1 | 
CN(C[C@H](O)[C@@H](O)[C@H](O)[C@H](O)CO)C(=O)CN(CCCCCc1cc(Cl)c(CN2CSC[C@H]2C(=O)N2CCN(C3CC3)c3ccccc32)cc1Cl)CC(=O)O [Example 277] | 0.126 to 1 | 
